Test results from patent US9637453B2, “3-spirocyclic-6-hydroxamic acid tetralins as HDAC inhibitors” (Forma Therapeutics, Inc., priority 2015, dated 2017).

Key:
[1] = target: T1, Full length human recombinant HDAC6 (Homo sapiens, UniProt Q9UBN7); assay: In vitro histone deacetylase assay, enzymatic HDAC6 (electrophoretic mobility shift assay); format: biochemical; conditions: 1 nM HDAC6; 2 μM peptide substrate FAM-RHKK(Ac)—NH2; 25° C.; 12 concentrations; read-out: HDAC6 Activity Range (IC50)
T1 construct: Full length human recombinant HDAC6 and HDAC11 proteins were expressed in baculoviral system
T1 sequence (Q9UBN7 1-1215): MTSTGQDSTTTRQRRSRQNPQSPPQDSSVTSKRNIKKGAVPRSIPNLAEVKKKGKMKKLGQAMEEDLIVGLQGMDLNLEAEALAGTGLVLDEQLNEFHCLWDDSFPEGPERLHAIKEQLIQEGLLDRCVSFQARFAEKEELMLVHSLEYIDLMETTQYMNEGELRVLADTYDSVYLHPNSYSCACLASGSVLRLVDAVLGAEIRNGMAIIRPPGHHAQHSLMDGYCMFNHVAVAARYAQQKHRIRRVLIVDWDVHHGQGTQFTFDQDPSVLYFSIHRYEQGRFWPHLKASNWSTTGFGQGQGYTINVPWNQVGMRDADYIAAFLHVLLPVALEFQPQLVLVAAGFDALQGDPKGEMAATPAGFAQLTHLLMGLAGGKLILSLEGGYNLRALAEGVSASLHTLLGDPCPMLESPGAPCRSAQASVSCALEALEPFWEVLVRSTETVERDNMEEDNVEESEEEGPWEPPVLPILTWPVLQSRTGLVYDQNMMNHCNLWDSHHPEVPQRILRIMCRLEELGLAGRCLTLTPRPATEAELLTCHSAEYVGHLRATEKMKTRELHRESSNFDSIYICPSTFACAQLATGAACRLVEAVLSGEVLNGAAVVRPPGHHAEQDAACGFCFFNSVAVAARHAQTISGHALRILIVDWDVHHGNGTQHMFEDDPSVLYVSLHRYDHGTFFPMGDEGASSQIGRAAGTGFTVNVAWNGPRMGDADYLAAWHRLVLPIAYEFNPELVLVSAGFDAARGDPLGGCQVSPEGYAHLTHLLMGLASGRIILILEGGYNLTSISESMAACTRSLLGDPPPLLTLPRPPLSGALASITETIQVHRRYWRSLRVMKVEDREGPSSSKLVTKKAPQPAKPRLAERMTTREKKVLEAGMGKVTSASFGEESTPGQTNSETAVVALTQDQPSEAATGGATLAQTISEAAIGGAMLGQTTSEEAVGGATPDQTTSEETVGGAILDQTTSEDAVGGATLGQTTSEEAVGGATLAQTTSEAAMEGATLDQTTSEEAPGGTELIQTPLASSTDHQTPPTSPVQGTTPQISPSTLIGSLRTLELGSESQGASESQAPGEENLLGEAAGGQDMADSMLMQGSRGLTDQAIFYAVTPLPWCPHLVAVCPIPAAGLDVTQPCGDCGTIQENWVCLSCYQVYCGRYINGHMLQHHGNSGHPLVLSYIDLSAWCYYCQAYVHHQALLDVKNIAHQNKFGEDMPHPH
Procedure, shortened: (§1)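 Baculovirus-expressed full-length enzymes (HDAC6 1 nM, FAM-RHKK(Ac)-NH2; HDAC11 10 nM, FAM-RHKK(tri-fluor-Ac)-NH2), 2 μM substrate, HEPES pH 7.5, 25°C, 12-point 3× dilutions. Product/substrate separated by microfluidic mobility shift after SDS quench; IC50 from 4-parameter fit, reported as +/++/+++ bins.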

[2] = target: T2, Full length human recombinant HDAC11 (Homo sapiens, UniProt Q96DB2); assay: In vitro histone deacetylase assay, enzymatic HDAC11 (electrophoretic mobility shift assay); format: biochemical; conditions: 10 nM HDAC11; 2 μM peptide substrate FAM-RHKK(tri-fluor-Ac)—NH2; 25° C.; 12 concentrations; read-out: HDAC11 Activity Range (IC50)
T2 construct: Full length human recombinant HDAC6 and HDAC11 proteins were expressed in baculoviral system
T2 sequence (Q96DB2 1-347): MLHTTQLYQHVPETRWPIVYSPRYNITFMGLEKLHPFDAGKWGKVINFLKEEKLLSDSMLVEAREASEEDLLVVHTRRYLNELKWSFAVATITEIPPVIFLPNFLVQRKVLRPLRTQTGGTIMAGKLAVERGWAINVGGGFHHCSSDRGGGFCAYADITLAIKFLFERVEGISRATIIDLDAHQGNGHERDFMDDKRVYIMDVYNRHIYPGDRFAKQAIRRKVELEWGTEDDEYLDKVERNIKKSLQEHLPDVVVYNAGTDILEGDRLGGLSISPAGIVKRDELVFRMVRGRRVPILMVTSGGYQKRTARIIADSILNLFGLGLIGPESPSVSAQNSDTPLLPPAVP
Procedure, shortened: as §1

| IC50 [1] | IC50 [2] | Compound |
| --- | --- | --- |
| ≤ 100 nM | > 500 nM | O=C(NO)c1ccc2c(c1)C[C@]1(CC2)CC(=O)N(CC(F)(F)F)C1 [Compound I-149, (R)—N-hydroxy-5′-oxo-1′-(2,2,2-trifluoroethyl)-3,4-dihydro-1H-spiro[naphthalene-2,3′-pyrrolidine]-7-carboxamide] |
| ≤ 100 nM | > 500 nM | COc1ccc(C(=O)N2CCC3(CCc4ccc(C(=O)NO)cc4O3)CC2)cc1 [II-1, N-hydroxy-1′-(4-methoxybenzoyl)spiro[chroman-2,4′-piperidine]-7-carboxamide] |
| ≤ 100 nM | > 500 nM | COc1ccc(S(=O)(=O)N2CCC3(CCc4ccc(C(=O)NO)cc4O3)CC2)cc1 [II-2, N-hydroxy-1′-((4-methoxyphenyl)sulfonyl)spiro[chromane-2,4′-piperidine]-7-carboxamide] |
| ≤ 100 nM | ≤ 100 nM | O=C(NO)c1ccc2c(c1)OC1(CC2)CCN(S(=O)(=O)C2CCCCC2)CC1 [II-3, 1′-(cyclohexylsulfonyl)-N-hydroxyspiro[chromane-2,4′-piperidine]-7-carboxamide] |
| ≤ 100 nM | > 500 nM | O=C(NO)c1ccc2c(c1)OC1(CC2)CCN(C(=O)Nc2ccccc2)CC1 [II-4, N7-hydroxy-N1′-phenylspiro[chroman-2,4′-piperidine]-1′,7-dicarboxamide] |
| ≤ 100 nM | 100 to 500 nM | O=C(NO)c1ccc2c(c1)OC1(CC2)CCN(C(=O)C2CCCCC2)CC1 [II-5, 1′-(cyclohexanecarbonyl)-N-hydroxyspiro[chromane-2,4′-piperidine]-7-carboxamide] |
| 100 to 500 nM | ≤ 100 nM | O=C(NO)c1ccc2c(c1)OC1(CC2)CCN(C2CCCCC2)CC1 [II-6, 1′-cyclohexyl-N-hydroxyspiro[chroman-2,4′-piperidine]-7-carboxamide] |
| > 500 nM | > 500 nM | COc1ccc(CN2CCC3(CCc4ccc(C(=O)NO)cc4O3)CC2)cc1 [II-7, N-hydroxy-1′-(4-methoxybenzyl)spiro[chromane-2,4′-piperidine]-7-carboxamide] |
